{
  "source": "patent US20130303509A1",
  "about": "“NAMPT INHIBITORS” (AbbVie Inc., priority 2012, published 2013)",
  "data": [
    {"test_system": "PC3 cells", "test": "NAMPT Cell Proliferation Assay", "assay_type": "cell-based", "conditions": "Homo sapiens, PC-3, 120 h, 5 days incubation, cell viability by Cell Titer Glo", "experimental": "NAMPT Cell Proliferation Assay\nPC3 cells were seeded in 96-well black plates (Corning #3904) at 500 cells)Owell in 90 µl of RPMI media containing 10% heat-inactivated FBS and incubated overnight at 37° C. and 5% CO2 to allow cells to attach to wells. The following day, test compounds were serially diluted in neat DMSO to 1000× final concentrations prior to dilution with RPMI media to 10× and 1% DMSO. […] of the 10× compounds were then transferred to wells containing cells to produce a dose response of 10-fold dilutions from […] to 1×10^−[…]. Cells were incubated for 5 days at 37° C. and 5% CO2, then cell viability was measured using Cell Titer Glo reagent (Promega #G7571). Percent inhibition values were calculated and fitted to a sigmoidal dose response curves using Assay Explorer software to determine IC50s.", "units": {"IC50": "nM"}, "values": [
      {"compound": "CC(C)(O)C(=O)N1CCC(Oc2ccc(C(=O)NC3CN(c4cccnc4)C3)cc2)CC1", "note": "[Example 24, 4-{[1-(2-hydroxy-2-methylpropanoyl)piperidin-4-yl]oxy}-N-[1-(pyridin-3-yl)azetidin-3-yl]benzamide]", "IC50": 169},
      {"compound": "Cc1ccncc1N1CC(C(=O)Nc2ccc(OC3CCN(C(=O)CC4CCOCC4)CC3)cc2)C1", "note": "[Example 5, 1-(4-methylpyridin-3-yl)-N-(4-{[1-(tetrahydro-2H-pyran-4-ylacetyl)piperidin-4-yl]oxy}phenyl)azetidine-3-carboxamide]", "IC50": 6.75},
      {"compound": "CC(C)Cn1cc(-c2ccc(C(=O)NC3CN(c4cccnn4)C3)o2)cn1", "note": "[Example 309, 5-[1-(2-methylpropyl)-1H-pyrazol-4-yl]-N-[1-(pyridazin-3-yl)azetidin-3-yl]furan-2-carboxamide]", "IC50": 8200},
      {"compound": "COCCOCC(=O)N1CCC(c2ccc(NC(=O)[C@H]3CCN(c4cccnn4)C3)cc2)CC1", "note": "[Example 722, (3S)-N-(4-{1-[(2-methoxyethoxy)acetyl]piperidin-4-yl}phenyl)-1-(pyridazin-3-yl)pyrrolidine-3-carboxamide]", "IC50": 84.8},
      {"compound": "O=C(Nc1ccc(OC2CCN(C(=O)Cc3cc(F)cc(F)c3)CC2)cc1)C1CN(c2ccnnc2)C1", "note": "[Example 291, N-[4-({1-[(3,5-difluorophenyl)acetyl]piperidin-4-yl}oxy)phenyl]-1-(pyridazin-4-yl)azetidine-3-carboxamide]", "IC50": 73.6},
      {"compound": "O=C(Nc1ccc(OC2CCN(CC3CC3)CC2)cc1)C1CN(c2cccnc2)C1", "note": "[Example 74, N-(4-{[1-(cyclopropylmethyl)piperidin-4-yl]oxy}phenyl)-1-(pyridin-3-yl)azetidine-3-carboxamide]", "IC50": 11.4},
      {"compound": "O=C(Nc1ccc(C2CCN(C(=O)c3ccoc3)CC2)cc1)C1CN(c2cccnc2)C1", "note": "[Example 104, N-{4-[1-(furan-3-ylcarbonyl)piperidin-4-yl]phenyl}-1-(pyridin-3-yl)azetidine-3-carboxamide]", "IC50": 0.18},
      {"compound": "O=C(Nc1ccc(C2CCN(C(=O)c3ccccc3Cl)CC2)cc1)[C@H]1CCN(c2cccnn2)C1", "note": "[Example 669, (3S)-N-{4-[1-(2-chlorobenzoyl)piperidin-4-yl]phenyl}-1-(pyridazin-3-yl)pyrrolidine-3-carboxamide]", "IC50": 1.88},
      {"compound": "CC(C)CN1CCC(Oc2ccc(NC(=O)C3CN(c4cccnc4)C3)cc2)CC1", "note": "[Example 76, N-(4-{[1-(2-methylpropyl)piperidin-4-yl]oxy}phenyl)-1-(pyridin-3-yl)azetidine-3-carboxamide]", "IC50": 19.1},
      {"compound": "O=C(Nc1ccc(OC2CN(C(=O)C(F)(F)c3ccccc3)C2)cc1)C1CN(c2ccnnc2)C1", "note": "[Example 201, N-[4-({1-[difluoro(phenyl)acetyl]azetidin-3-yl}oxy)phenyl]-1-(pyridazin-4-yl)azetidine-3-carboxamide]", "IC50": 60.9},
      {"compound": "O=C(Nc1ccc(S(=O)(=O)C2CCN(C(=O)c3ccccc3)CC2)cc1)C1CN(c2cccnn2)C1", "note": "[Example 574, N-{4-[(1-benzoylpiperidin-4-yl)sulfonyl]phenyl}-1-(pyridazin-3-yl)azetidine-3-carboxamide]", "IC50": 55.3},
      {"compound": "O=C(Nc1ccc(C2CCN(C(=O)c3cc(Cl)cc(Cl)c3)CC2)cc1)C1CN(c2cccnn2)C1", "note": "[Example 365, N-{4-[1-(3,5-dichlorobenzoyl)piperidin-4-yl]phenyl}-1-(pyridazin-3-yl)azetidine-3-carboxamide]", "IC50": 7.84},
      {"compound": "CC(C)Cn1cc(-c2ccc(C(=O)N[C@@H]3CCN(c4ccnnc4)C3)s2)cn1", "note": "[Example 604, 5-[1-(2-methylpropyl)-1H-pyrazol-4-yl]-N-[(3R)-1-(pyridazin-4-yl)pyrrolidin-3-yl]thiophene-2-carboxamide]", "IC50": 8260},
      {"compound": "O=C(Nc1ccc(C2CCN(C(=O)CCS(=O)(=O)c3ccccc3)CC2)cc1)C1CN(c2cccnn2)C1", "note": "[Example 424, N-(4-{1-[3-(phenylsulfonyl)propanoyl]piperidin-4-yl}phenyl)-1-(pyridazin-3-yl)azetidine-3-carboxamide]", "IC50": 1.5},
      {"compound": "Cc1ccc(C(=O)N2CCC(Oc3ccc(NC(=O)C4CN(c5cccnn5)C4)cc3)CC2)s1", "note": "[Example 219, N-[4-({1-[(5-methylthiophen-2-yl)carbonyl]piperidin-4-yl}oxy)phenyl]-1-(pyridazin-3-yl)azetidine-3-carboxamide]", "IC50": 8.86},
      {"compound": "O=C(Nc1ccc(C2CCN(C(=O)Cc3ccc(F)cc3)CC2)cc1)C1CN(c2cccnn2)C1", "note": "[Example 368, N-(4-{1-[(4-fluorophenyl)acetyl]piperidin-4-yl}phenyl)-1-(pyridazin-3-yl)azetidine-3-carboxamide]", "IC50": 7.7},
      {"compound": "O=C(Nc1ccc(C2CCN(C(=O)CC3CCCCC3)CC2)cc1)C1CN(c2cccnc2)C1", "note": "[Example 119, N-{4-[1-(cyclohexylacetyl)piperidin-4-yl]phenyl}-1-(pyridin-3-yl)azetidine-3-carboxamide]", "IC50": 0.19},
      {"compound": "O=C(Nc1ccc(C2CN(C(=O)c3ccc(F)cc3F)C2)cc1)[C@H]1CCN(c2cccnn2)C1", "note": "[Example 792, (3S)-N-{4-[1-(2,4-difluorobenzoyl)azetidin-3-yl]phenyl}-1-(pyridazin-3-yl)pyrrolidine-3-carboxamide]", "IC50": 8.8},
      {"compound": "O=C(Nc1ccc(C2CCN(C(=O)C3CCCO3)CC2)cc1)[C@H]1CCN(c2cccnn2)C1", "note": "(stereo partly drawn) [Example 661, (3S)-1-(pyridazin-3-yl)-N-{4-[1-(tetrahydrofuran-2-ylcarbonyl)piperidin-4-yl]phenyl}pyrrolidine-3-carboxamide]", "IC50": 21.6},
      {"compound": "Cc1ccccc1C(=O)N1CCC(c2ccc(NC(=O)C3CN(c4cccnn4)C3)cc2)CC1", "note": "[Example 429, N-{4-[1-(2-methylbenzoyl)piperidin-4-yl]phenyl}-1-(pyridazin-3-yl)azetidine-3-carboxamide]", "IC50": 0.8},
      {"compound": "COc1ccc(C(=O)N2CCC(c3ccc(NC(=O)[C@H]4CCN(c5cccnn5)C4)cc3)CC2)cc1", "note": "[Example 705, (3S)-N-{4-[1-(4-methoxybenzoyl)piperidin-4-yl]phenyl}-1-(pyridazin-3-yl)pyrrolidine-3-carboxamide]", "IC50": 20.2},
      {"compound": "CC(=O)N1CCC(Oc2ccc(NC(=O)C3CN(c4cccnn4)C3)cc2)CC1", "note": "[Example 244, -{4-[(1-acetylpiperidin-4-yl)oxy]phenyl}-1-(pyridazin-3-yl)azetidine-3-carboxamide]", "IC50": 10.4},
      {"compound": "O=C(Nc1ccc(C2CN(C(=O)c3cc(F)cc(F)c3)C2)cc1)[C@H]1CCN(c2cccnn2)C1", "note": "[Example 790, (3S)-N-{4-[1-(3,5-difluorobenzoyl)azetidin-3-yl]phenyl}-1-(pyridazin-3-yl)pyrrolidine-3-carboxamide]", "IC50": 74.6},
      {"compound": "Cc1ccc(S(=O)(=O)NCC(=O)N2CCC(c3ccc(NC(=O)C4CN(c5cccnn5)C4)cc3)CC2)cc1", "note": "[Example 418, N-[4-(1-{N-[(4-methylphenyl)sulfonyl]glycyl}piperidin-4-yl)phenyl]-1-(pyridazin-3-yl)azetidine-3-carboxamide]", "IC50": 8.26},
      {"compound": "CC(C)Cn1cc(-c2ncc(C(=O)N[C@H]3CCN(c4cccnn4)C3)s2)cn1", "note": "[Example 742, 2-[1-(2-methylpropyl)-1H-pyrazol-4-yl]-N-[(3S)-1-(pyridazin-3-yl)pyrrolidin-3-yl]-1,3-thiazole-5-carboxamide]", "IC50": 734},
      {"compound": "CCCC(C)C(=O)N1CCC(c2ccc(NC(=O)C3CN(c4cccnn4)C3)cc2)CC1", "note": "(centres unmarked) [Example 322, N-{4-[1-(2-methylpentanoyl)piperidin-4-yl]phenyl}-1-(pyridazin-3-yl)azetidine-3-carboxamide]", "IC50": 2.14}
    ]}
  ]
}
